We go through 1 molecule from US20250357519A1, “APPLICATIONS OF O2-INSENSITIVE FORMATE DEHYDROGENASE” (UNIVERSITY OF MARYLAND, BALTIMORE, priority 2022, published 2025).

Read-outs that look alike come from different tables or passages of the source.

The subject of experiment [1] is Desulfovibrio vulgaris Hildenborough (DvH) Mo-FDH3, wild-type natively-purified (Mo-FDH3^WT). Conditions: pH 7.6, RT, 2 mM BV, 0.25 nM enzyme; Da Silva et al (2011); cited from earlier work.
Experiment [2] concerns Desulfovibrio alaskensis (Da) W-FDH1, wild-type natively-purified (W-FDH1^WT). The settings on record: pH 8.0, 37 °C, 7.5 mM BV, 35 nM enzyme; Mota (2011); cited from earlier work.
Experiment [3] concerns Desulfovibrio gigas (Dg) W-FDH1, wild-type natively-purified (W-FDH1^WT). The settings on record: pH 8.0, 37 °C, 7.5 mM BV, 35 nM enzyme; Mota (2011); cited from earlier work.
The subject of experiment [4] is Desulfovibrio vulgaris Hildenborough (DvH) W-FDH1, wild-type natively-purified (W-FDH1^WT), large subunit DVU0587 SEQ ID NO: 29, small subunit DVU0588 SEQ ID …. The settings on record: pH 7.6, RT, 2 mM BV, cited from earlier work.
Experiment [5] deals with Desulfovibrio vulgaris Hildenborough (DvH) FDH2, wild-type natively-purified (FDH2^WT), large subunit DVU2482 SEQ ID NO: 31, small subunit DVU2481 SEQ ID NO: …. The settings on record: cited from earlier work.
Experiment [6] deals with T1, Desulfovibrio vulgaris Hildenborough (DvH) FDH2, recombinant Strep-tag II-tagged (FDH2^Rec), large subunit DVU2482 SEQ ID NO: 31, small subunit DVU2481 SEQ ID N (Nitratidesulfovibrio vulgaris, UniProt Q728X0).
T1 sequence (Q728X0 36-1003): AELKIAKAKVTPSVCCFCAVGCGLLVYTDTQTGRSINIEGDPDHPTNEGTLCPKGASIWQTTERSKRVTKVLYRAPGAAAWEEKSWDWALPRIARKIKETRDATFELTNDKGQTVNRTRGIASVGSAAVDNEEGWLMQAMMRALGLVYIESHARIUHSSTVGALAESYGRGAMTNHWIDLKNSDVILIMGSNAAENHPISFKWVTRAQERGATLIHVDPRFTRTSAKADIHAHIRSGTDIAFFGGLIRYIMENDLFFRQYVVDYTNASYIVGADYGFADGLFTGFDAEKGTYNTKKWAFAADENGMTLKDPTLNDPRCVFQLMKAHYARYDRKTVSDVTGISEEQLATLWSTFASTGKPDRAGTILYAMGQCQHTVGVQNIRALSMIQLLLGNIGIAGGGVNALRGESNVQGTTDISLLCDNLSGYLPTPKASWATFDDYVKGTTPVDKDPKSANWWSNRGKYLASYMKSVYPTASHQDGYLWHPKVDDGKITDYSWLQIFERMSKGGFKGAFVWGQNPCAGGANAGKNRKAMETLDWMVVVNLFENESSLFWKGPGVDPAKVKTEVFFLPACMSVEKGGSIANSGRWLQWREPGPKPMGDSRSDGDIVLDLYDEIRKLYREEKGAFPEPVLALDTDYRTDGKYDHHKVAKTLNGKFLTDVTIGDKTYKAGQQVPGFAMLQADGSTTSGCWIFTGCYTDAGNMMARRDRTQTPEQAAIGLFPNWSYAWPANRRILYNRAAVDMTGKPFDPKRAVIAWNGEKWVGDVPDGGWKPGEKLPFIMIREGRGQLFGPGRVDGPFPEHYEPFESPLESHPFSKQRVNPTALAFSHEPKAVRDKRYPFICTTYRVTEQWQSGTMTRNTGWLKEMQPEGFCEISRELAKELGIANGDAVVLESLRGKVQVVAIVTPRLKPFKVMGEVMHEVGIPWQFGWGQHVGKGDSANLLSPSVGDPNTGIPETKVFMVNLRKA
T1 sequence (Q728X1 1-260 partner): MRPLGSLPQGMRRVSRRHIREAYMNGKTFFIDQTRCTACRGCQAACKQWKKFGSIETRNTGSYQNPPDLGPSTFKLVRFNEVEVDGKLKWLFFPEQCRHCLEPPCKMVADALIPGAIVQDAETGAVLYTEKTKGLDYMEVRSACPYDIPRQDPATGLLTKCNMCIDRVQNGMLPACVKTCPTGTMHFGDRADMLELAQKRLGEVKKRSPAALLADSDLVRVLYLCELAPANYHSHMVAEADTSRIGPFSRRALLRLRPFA
Description: Benzyl viologen (BV) assay of formate oxidation.

[7] abbreviates: 0.0124 nM enzyme, Da Silva et al (2011).
The mark [8] stands for this setting: BV (2 mM), anaerobic, 1 replicate, da Silva et al (2011), Table 4.
[9] abbreviates: pH 7.6, RT, 2 mM BV, 0.48 nM enzyme, Da Silva et al (2011).

A word on the Km: it is the concentration of substrate that gives half-maximal velocity. The kcat is the number of substrate molecules converted per active site and unit of time at saturation. `O=CO` [formate]: the Km is 8 µM in experiment [1]; 10 µM in experiment [2]; 51 µM in experiment [3]; 1 µM in experiment [4] (setting [7]); 4 µM in experiment [5] (setting [8]); 4 µM in experiment [5] (setting [9]). For the same molecule, the kcat in experiment [1] was 262 s⁻¹; in experiment [2], 241 s⁻¹; in experiment [3], 174 s⁻¹; in experiment [4] (setting [7]) it was 3684 s⁻¹; in experiment [4] (1.4 nM enzyme, Oliveira et al (2020)), 1104 ± 62 s⁻¹; in experiment [5] (setting [8]) it was 81 s⁻¹. Moreover, the turnover number (kcat) is 81 s⁻¹ in experiment [5] (setting [9]); 47 ± 2 s⁻¹ in experiment [6] (2 mM BV (anaerobic), full progress curve global fit); 68 ± 5 s⁻¹ in experiment [6] (BV (2 mM), anaerobic, initial velocities, 3 replicates, pH 8.0, 25 °C); 111 ± 16 s⁻¹ in experiment [6] (BV (20 mM), anaerobic, initial velocities, 3 replicates, pH 8.0, 25 °C).
